Data reported in the supplement of paper PMC10627819.

Assays:
B. subtilis 168 [1] = test: fitness (endpoint OD595 vs no drug) (fraction); higher = more growth
In short: (§1)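 Fitness expresses the optical density reached at the stationary-phase transition as a fraction of the robust mean of no-drug control wells. It is capped at 1. Measurements were OD595 every 30 min for 14 h at 37 °C after inoculation of 384-well plates at OD595 0.01 (30 µl, or 55 µl for S. pneumoniae), minus the first reading.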

S. aureus DSM 20231 = test: Bliss interaction score (quartile over a dose matrix) (fitness difference); higher = more antagonism (negative = synergy)
In short: (§2)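 Fitness here means normalised growth, inferred for single drugs from the combination data. Growth was OD595 at entry into stationary phase, divided by the plate's robust no-drug mean and capped at 1. The Bliss score is observed minus expected fitness, with the expectation being the product, and its quartiles span technical, biological and donor/recipient replicates.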

S. pneumoniae D39V [2] = test: as above
In short: as §2

S. aureus Newman = test: as above
In short: as §2

B. subtilis 168 [3] = test: as above
In short: as §2

S. pneumoniae D39V [4] = test: fitness (endpoint OD595 vs no drug) (fraction); higher = more growth
In short: as §1
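For Bliss interaction score (quartile over a dose matrix) in this document: first quartile when negative (synergy) and third quartile when positive (antagonism).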
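For fitness (endpoint OD595 vs no drug) in this document: OD595 on entry to stationary phase over no-drug wells; at most 1.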

C[C@H]1c2cccc(O)c2C(=O)C2=C(O)[C@]3(O)C(=O)C(C(N)=O)=C(O)[C@@H](N(C)C)[C@@H]3[C@@H](O)[C@@H]21 [Doxycycline] + CO[C@@H]1[C@@H](OC(N)=O)[C@@H](O)[C@H](Oc2ccc3c(O)c(NC(=O)c4ccc(O)c(CC=C(C)C)c4)c(=O)oc3c2C)OC1(C)C [Novobiocin]
fitness, B. subtilis 168 [1]
Conditions	first compound 0.02 µg/mL	first compound 0.04 µg/mL	first compound 0.08 µg/mL
partner 0.0125 µg/mL	0.885	0.808	0.466
partner 0.025 µg/mL	0.875	0.775	0.405
partner 0.05 µg/mL	0.978	0.775	–

fitness, B. subtilis 168 [1], one replicate
Conditions	partner 0.1 µg/mL	partner 0.125 µg/mL	partner 0.2 µg/mL	partner 0.25 µg/mL	partner 0.5 µg/mL
first compound 0.02 µg/mL	≥ 1	0.861	0.979	0.963	0.623
first compound 0.04 µg/mL	0.874	0.787	0.895	0.712	0.547
first compound 0.08 µg/mL	0.675	0.341	0.71	0.103	0.0433

Conditions	Bliss interaction score
B. subtilis 168 [3]	0.0575
S. aureus DSM 20231	0.0829
S. aureus Newman	0.0369
S. pneumoniae D39V [2]	0.0928

CO/N=C(\C(=O)N[C@@H]1C(=O)N2C(C(=O)O)=C(COC(N)=O)CS[C@H]12)c1ccco1 [Cefuroxime] + C[C@H]1COc2c(N3CCN(C)CC3)c(F)cc3c(=O)c(C(=O)O)cn1c23 [Levofloxacin]
fitness, B. subtilis 168 [1], one replicate
Conditions	first compound 0.04875 µg/mL	first compound 0.0975 µg/mL	first compound 0.195 µg/mL	first compound 0.39 µg/mL	first compound 0.78 µg/mL	first compound 1.562 µg/mL	first compound 3.125 µg/mL	first compound 6.25 µg/mL
partner 0.001 µg/mL	–	–	0.284	0.15	0.156	–	–	–
partner 0.002 µg/mL	0.503	0.466	–	0.146	0.112	–	–	–
partner 0.0039 µg/mL	0.498	0.456	–	0.127	0.0881	–	–	–
partner 0.0078 µg/mL	0.432	0.397	0.334	–	–	–	–	–
partner 0.0312 µg/mL	0.055	0.0225	0.0495	–	–	0.0432	0.0263	0.0208
partner 0.0625 µg/mL	0.0626	0.0281	0.0412	–	–	0.0291	0.027	0.0162
partner 0.125 µg/mL	0.0489	0.0206	0.0412	–	–	0.0267	0.0197	0.0093

B. subtilis 168 [1], first compound 0.195 µg/mL
Conditions	fitness
partner 0.002 µg/mL	0.291
partner 0.0039 µg/mL	0.267

Conditions	Bliss interaction score
B. subtilis 168 [3]	-0.0899
S. aureus DSM 20231	-0.22
S. aureus Newman	-0.146
S. pneumoniae D39V [2]	0.0603

O=C(O)c1cn(C2CC2)c2cc(N3CCNCC3)c(F)cc2c1=O [Ciprofloxacin] + COc1cc(Cc2cnc(N)nc2N)cc(OC)c1OC [Trimethoprim]
fitness, B. subtilis 168 [1], one replicate
Conditions	partner 0.1 µg/mL	partner 0.2 µg/mL	partner 0.4 µg/mL	partner 1 µg/mL	partner 2 µg/mL
first compound 0.0098 µg/mL	0.863	0.721	0.516	0.342	0.321
first compound 0.0195 µg/mL	0.835	0.552	0.457	0.333	0.349
first compound 0.039 µg/mL	0.412	0.355	0.334	0.276	0.246

fitness, B. subtilis 168 [1]
Conditions	first compound 0.0098 µg/mL	first compound 0.0195 µg/mL	first compound 0.039 µg/mL
partner 0.125 µg/mL	0.647	0.546	0.424
partner 0.25 µg/mL	0.547	0.428	0.355
partner 0.5 µg/mL	0.479	0.444	0.387

Conditions	Bliss interaction score
B. subtilis 168 [3]	0.135
S. aureus DSM 20231	-0.106
S. aureus Newman	-0.165
S. pneumoniae D39V [2]	0.0557

Cc1ncc([N+](=O)[O-])n1CCO [Metronidazole] + CO[C@H]1/C=C/O[C@@]2(C)Oc3c(C)c(O)c4c(O)c(c(/C=N/N5CCN(C)CC5)c(O)c4c3C2=O)NC(=O)/C(C)=C\C=C\[C@H](C)[C@H](O)[C@@H](C)[C@@H](O)[C@@H](C)[C@H](OC(C)=O)[C@@H]1C [Rifampicin]
fitness, S. pneumoniae D39V [4]
Conditions	first compound 1.073 µg/mL	first compound 1.25 µg/mL	first compound 2.145 µg/mL	first compound 2.5 µg/mL	first compound 4.29 µg/mL	first compound 5 µg/mL
partner 0.05 µg/mL	0.881	0.81	0.907	0.83	0.84	0.839
partner 0.1 µg/mL	0.577	–	0.617	–	0.677	–
partner 0.2 µg/mL	0.302	–	0.35	–	–	–

fitness, S. pneumoniae D39V [4], one replicate
Conditions	first compound 1.25 µg/mL	first compound 2.5 µg/mL	first compound 5 µg/mL
partner 0.025 µg/mL	0.897	0.907	0.892
partner 0.2 µg/mL	0	0	0

Conditions	Bliss interaction score
B. subtilis 168 [3]	0.0335
S. aureus DSM 20231	-0.0591
S. aureus Newman	0.0408
S. pneumoniae D39V [2]	0.104

COc1ccc(C[C@H](N)C(=O)N[C@H]2[C@@H](O)[C@H](n3cnc4c(N(C)C)ncnc43)O[C@@H]2CO)cc1 [Puromycin] + CO[C@H]1/C=C/O[C@@]2(C)Oc3c(C)c(O)c4c(O)c(c(/C=N/N5CCN(C)CC5)c(O)c4c3C2=O)NC(=O)/C(C)=C\C=C\[C@H](C)[C@H](O)[C@@H](C)[C@@H](O)[C@@H](C)[C@H](OC(C)=O)[C@@H]1C [Rifampicin]
S. pneumoniae D39V [4], partner 0.025 µg/mL, one replicate
Conditions	fitness
first compound 1 µg/mL	0.914
first compound 2 µg/mL	0.856
first compound 4 µg/mL	0.691

fitness, S. pneumoniae D39V [4]
Conditions	first compound 1 µg/mL	first compound 2 µg/mL	first compound 4 µg/mL
partner 0.05 µg/mL	0.747	0.753	–
partner 0.2 µg/mL	0.135	0.0783	0.0597

Conditions	Bliss interaction score
B. subtilis 168 [3]	0.0301
S. aureus DSM 20231	0.0391
S. aureus Newman	0.0233
S. pneumoniae D39V [2]	-0.0708

C[C@H]1c2cccc(O)c2C(=O)C2=C(O)[C@]3(O)C(=O)C(C(N)=O)=C(O)[C@@H](N(C)C)[C@@H]3[C@@H](O)[C@@H]21 [Doxycycline] + Cn1nnc(-c2ccc(-c3ccc(N4C[C@H](CO)OC4=O)cc3F)cn2)n1 [Tedizolid]
fitness, S. pneumoniae D39V [4], one replicate
Conditions	first compound 0.003875 µg/mL	first compound 0.00775 µg/mL	first compound 0.031 µg/mL	first compound 0.062 µg/mL
partner 0.125 µg/mL	0.847	0.848	–	–
partner 0.25 µg/mL	0.765	0.759	0.709	0.56
partner 0.5 µg/mL	0.411	0.438	0.301	0.203

fitness, S. pneumoniae D39V [4]
Conditions	partner 0.03125 µg/mL	partner 0.0625 µg/mL	partner 0.125 µg/mL	partner 0.25 µg/mL	partner 0.5 µg/mL
first compound 0.0155 µg/mL	0.91	0.913	0.832	0.801	0.456
first compound 0.031 µg/mL	0.957	0.9	0.768	–	–
first compound 0.062 µg/mL	0.92	0.905	0.826	–	–

Conditions	Bliss interaction score
B. subtilis 168 [3]	-0.0653
S. aureus DSM 20231	-0.0283
S. aureus Newman	-0.0152
S. pneumoniae D39V [2]	0.055

COc1cccc2c1C(=O)c1c(O)c3c(c(O)c1C2=O)C[C@@](O)(C(=O)CO)C[C@@H]3O[C@H]1C[C@H](N)[C@H](O)[C@H](C)O1 [Doxorubicin] + O=C1CN(/N=C/c2ccc([N+](=O)[O-])o2)C(=O)N1 [Nitrofurantoin]
fitness, S. pneumoniae D39V [4]
Conditions	partner 1.285 µg/mL	partner 2 µg/mL	partner 2.57 µg/mL	partner 4 µg/mL	partner 8 µg/mL
first compound 0.25 µg/mL	0.935	0.918	0.91	0.857	0.465
first compound 0.5 µg/mL	0.925	0.946	0.94	0.795	0.436
first compound 1 µg/mL	0.825	0.814	0.809	0.721	0.405

S. pneumoniae D39V [4], partner 5.14 µg/mL, one replicate
Conditions	fitness
first compound 0.25 µg/mL	0.822
first compound 0.5 µg/mL	0.858
first compound 1 µg/mL	0.695

Conditions	Bliss interaction score
B. subtilis 168 [3]	-0.221
S. aureus DSM 20231	-0.0576
S. aureus Newman	-0.0388
S. pneumoniae D39V [2]	0.0747

C[C@H]1c2cccc(O)c2C(=O)C2=C(O)[C@]3(O)C(=O)C(C(N)=O)=C(O)[C@@H](N(C)C)[C@@H]3[C@@H](O)[C@@H]21 [Doxycycline] + CN[C@H](CC(C)C)C(=O)N[C@H]1C(=O)N[C@@H](CC(N)=O)C(=O)N[C@H]2C(=O)N[C@H]3C(=O)N[C@H](C(=O)N[C@H](C(=O)O)c4cc(O)cc(O)c4-c4cc3ccc4O)[C@H](O)c3ccc(c(Cl)c3)Oc3cc2cc(c3O[C@@H]2O[C@H](CO)[C@@H](O)[C@H](O)[C@H]2O[C@H]2C[C@](C)(N)[C@H](O)[C@H](C)O2)Oc2ccc(cc2Cl)[C@H]1O [Vancomycin]
fitness, S. pneumoniae D39V [4], one replicate
Conditions	first compound 0.003875 µg/mL	first compound 0.00775 µg/mL	first compound 0.031 µg/mL	first compound 0.062 µg/mL
partner 0.125 µg/mL	0.882	0.989	–	–
partner 0.25 µg/mL	0.29	0.571	0.753	0.629
partner 0.5 µg/mL	0.0216	0.0253	0.128	0.0893

fitness, S. pneumoniae D39V [4]
Conditions	partner 0.03125 µg/mL	partner 0.0625 µg/mL	partner 0.125 µg/mL	partner 0.25 µg/mL	partner 0.5 µg/mL
first compound 0.0155 µg/mL	0.903	0.876	0.913	0.802	0.105
first compound 0.031 µg/mL	0.838	0.79	0.767	–	–
first compound 0.062 µg/mL	0.84	0.783	–	–	–

Conditions	Bliss interaction score
B. subtilis 168 [3]	0.0535
S. aureus DSM 20231	0.0785
S. aureus Newman	0.0371
S. pneumoniae D39V [2]	0.101

CO/N=C(\C(=O)N[C@@H]1C(=O)N2C(C(=O)O)=C(COC(C)=O)CS[C@H]12)c1csc(N)n1 [Cefotaxime] + CO[C@H]1/C=C/O[C@@]2(C)Oc3c(C)c(O)c4c(O)c(c(/C=N/N5CCN(C)CC5)c(O)c4c3C2=O)NC(=O)/C(C)=C\C=C\[C@H](C)[C@H](O)[C@@H](C)[C@@H](O)[C@@H](C)[C@H](OC(C)=O)[C@@H]1C [Rifampicin]
fitness, S. pneumoniae D39V [4]
Conditions	first compound 0.0018 µg/mL	first compound 0.0035 µg/mL	first compound 0.007 µg/mL
partner 0.025 µg/mL	0.96	0.964	0.798
partner 0.1 µg/mL	–	–	0.159

S. pneumoniae D39V [4], partner 0.2 µg/mL, one replicate
Conditions	fitness
first compound 0.0018 µg/mL	0
first compound 0.0035 µg/mL	0
first compound 0.007 µg/mL	0

Conditions	Bliss interaction score
B. subtilis 168 [3]	0.0961
S. aureus DSM 20231	0.0866
S. aureus Newman	0.0597
S. pneumoniae D39V [2]	-0.0838

O=C(O)c1cn(C2CC2)c2cc(N3CCNCC3)c(F)cc2c1=O [Ciprofloxacin] + C[C@@H](O)[C@H]1C(=O)N2C(C(=O)O)=C(SCCNC=N)C[C@H]12 [Imipenem]
fitness, S. pneumoniae D39V [4]
Conditions	partner 0.005 µg/mL	partner 0.0065 µg/mL	partner 0.01 µg/mL	partner 0.013 µg/mL	partner 0.02 µg/mL	partner 0.026 µg/mL
first compound 0.125 µg/mL	0.956	0.96	0.959	0.893	0.933	0.837
first compound 0.25 µg/mL	–	0.878	–	0.847	–	0.774
first compound 0.5 µg/mL	–	0.531	–	0.583	–	0.529

S. pneumoniae D39V [4], first compound 0.25 µg/mL, one replicate
Conditions	fitness
partner 0.005 µg/mL	0.835
partner 0.01 µg/mL	0.824
partner 0.02 µg/mL	0.881

Conditions	Bliss interaction score
B. subtilis 168 [3]	-0.149
S. aureus DSM 20231	0.0301
S. aureus Newman	0.016
S. pneumoniae D39V [2]	0.0446
